Here are results for nine molecules from paper PMC9410537, “Discovery of Ircinianin Lactones B and C—Two New Cyclic Sesterterpenes from the Marine Sponge Ircinia wistarii” (Marine Drugs, 2022).

Read-outs that look alike come from different tables or passages of the source.

The subject of series [1] is L-6 cells (rat skeletal myoblasts). The series can be described thus: In vitro cytotoxicity assay with L-6 cells (resazurin). Type of series: cell-based. The note with it: L6, 70 h, read-out: IC50 L6. The protocol: In vitro cytotoxicity assay with L-6 cells. Assays were performed in 96-well microtiter plates, each well containing 100 μL of RPMI 1640 medium supplemented with 1% L-glutamine (200 mM) and 10% fetal bovine serum, and 4000 L-6 cells (a primary cell line derived from rat skeletal myoblasts). Serial drug dilutions ranged from 100 to 0.002 μg/mL. After 70 h of incubation, the plates were inspected under an inverted microscope to assure growth of the controls and sterile conditions. 10 μL of resazurin was then added to each well and the plates were incubated for another 2 h. […] Podophyllotoxin (Sigma P4405) was used as control (IC50 0.011 ± 0.005 μM).

The subject of series [2] is T. cruzi Tulahuen strain C2C4. Put plainly: Activity against T. cruzi in L-6 cells (beta-galactosidase/CPRG). The format is cell-based, Trypanosoma cruzi. Conditions: Tulahuen C2C4 in L-6 cells, Table 2 values are means of two independent assays. The method, then:
Activity against T. cruzi. Rat skeletal myoblasts (L-6 cells) were seeded in 96-well microtiter plates at 2000 cells/well in 100 μL RPMI 1640 medium with 10% FBS and 2 mM L-glutamine. After 24 h, the media in each well was removed and replaced with 100 μL of fresh media containing 5000 trypomastigote forms of T. cruzi Tulahuen strain C2C4 containing the β-galactosidase (lacZ) gene. After 48 h, the media was removed from the wells again, and this time, replaced by 100 μL fresh medium with or without 1 from 100 to 0.002 μg/mL. After 96 h of incubation, the plates were inspected under an inverted microscope to assess growth and sterility of the controls. Then, the substrate CPRG/Nonidet (50 μL) was added to all wells. A color reaction developed within 2–6 h and could be read photometrically at 540 nm.

For series [3], the system named is P. falciparum NF54 strain. Put plainly: In vitro activity against erythrocytic stages of P. falciparum (3H-hypoxanthine incorporation assay). Type of series: cell-based. The note with it: Plasmodium falciparum, Table 2 values are means of two independent assays. The method, then: Activity against P. falciparum. In vitro activity against erythrocytic stages of P. falciparum was determined using a ^3H-hypoxanthine incorporation assay against the drug-sensitive NF54 strain [76]. Compounds were dissolved in DMSO at 10 mg/mL and further diluted in medium before being added to parasite cultures incubated in RPMI 1640 medium without hypoxanthine, supplemented with HEPES (5.94 g/L), NaHCO3 (2.1 g/L), neomycin (100 U/mL), Albumax^R (5 g/L) and washed human red cells A^+ at 2.5% haematocrit (0.3% parasitaemia). Serial drug dilutions ranged from 100 to 0.002 μg/mL. The 96-well plates were incubated in a humidified atmosphere at 37 °C; 4% CO2, 3% O2, 93% N2. After 48 h 50 μL of ^3H-hypoxanthine (=0.5 μCi) was added to each well of the plate. The plates were incubated for a further 24 h under the same conditions. The plates were then harvested with a Betaplate™ cell harvester (Wallac, Zurich, Switzerland) and the red blood cells were transferred onto a glass fiber filter then washed with distilled water. The dried filters were inserted into a plastic foil with 10 mL of scintillation fluid and counted in a Betaplate™ liquid scintillation counter (Wallac, Zurich, Switzerland). IC50 values were calculated from sigmoidal inhibition curves by linear regression using Microsoft Excel. Chloroquine diphosphate (Sigma C6628) was used as control (IC50 0.006 ± 0.002 μM).

Series [4] can be described thus: Observed stability of the isolated compounds. The format is physicochemical. The text has this:
The shift values of the terminal heterocycle were in very good agreement with literature data from similar natural products, bearing a γ-hydroxy-γ-butenolide moiety. Analogous to compound 7, the Δ^8,10 double bond of 8 was defined as E (C-9: δC 16.2 and NOESY cross correlations depicted in Figure 4). Likewise, based on the same observed diagnostic NOE crosspeaks for the indene system (Figure S43B) and for biogenetic reasons, we propose that 8 is 11R*, 15R*, 18S*, 20R*, 21S* configured. […] Therefore, we integrated computational methods and aimed for quantum-mechanical predictions of ^1H and ^13C NMR chemical shifts of a 1S- and a 1R-configured version of 8.
All tests were performed with 1 as a pre-screening for the scaffold’s activity within their respective assays. Based on the results from the pre-screening, the biological evaluation of the structural congeners was planned. Unfortunately, an instability phenomenon affected the purity of the isolated compounds. Due to the limited amounts of the isolated compounds, repurification would not have yielded the required sample quantity for the assays. This reality precluded biological evaluation of the structural congeners 3–8.

Series [5] concerns Trypanosoma brucei rhodesiense STIB900. The series can be described thus: Activity against Trypanosoma brucei rhodesiense STIB900 (resazurin). Conditions: Table 2 values are means of two independent assays.
Method: Activity against Trypanosoma brucei rhodesiense STIB900. […] Minimum Essential Medium (50 µL) supplemented with 25 mM HEPES, 1 g/L additional glucose, 1% MEM non-essential amino acids (100×), 0.2 mM 2-mercaptoethanol, 1 mM Na-pyruvate and 15% heat inactivated horse serum was added to each well of a 96-well microtiter plate. Serial drug dilutions ranging from 100 to 0.002 μg/mL were prepared. Then, 4 × 10^3 bloodstream forms of T. b. rhodesiense STIB 900 in 50 µL were added to each well and the plate was incubated at 37 °C under a 5% CO2 atmosphere for 70 h. 10 µL of a resazurin solution (resazurin, 12.5 mg in 100 mL double-distilled water) was then added to each well and incubation continued for a further 2–4 h [70]. The plates were read with a Spectramax Gemini XS microplate fluorometer (Molecular Devices Cooperation, Sunnyvale, CA, USA) using an excitation wavelength of 536 nm and an emission wavelength of 588 nm. Data were analyzed using Softmax Pro (Molecular Devices Cooperation, Sunnyvale, CA, USA), which calculated IC50 values by linear regression [71] and 4-parameter logistic regression from the sigmoidal dose inhibition curves.
In series [6] the test system is L. donovani strain MHOM/ET/67/L82 axenic amastigotes. Put plainly: Activity against L. donovani axenic amastigotes (resazurin). The format is cell-based, Leishmania donovani. The note with it: in vitro, Table 2 values are means of two independent assays. The method, then: Activity against L. donovani axenic amastigotes. Amastigotes of L. donovani strain MHOM/ET/67/L82 were grown in axenic culture at 37 °C in SM medium at pH 5.4 supplemented with 10% heat-inactivated fetal bovine serum under an atmosphere of 5% CO2 in air. 100 µL of culture medium with 10^5 amastigotes from axenic culture with or without a serial drug dilution were seeded in 96-well microtiter plates. Serial drug dilutions ranged from 100 to 0.002 μg/mL. After 70 h of incubation, the plates were inspected under an inverted microscope to assure growth of the controls and sterile conditions.

Regarding `COc1cc([C@@H]2c3cc4c(cc3[C@H](O)[C@H]3COC(=O)[C@H]23)OCO4)cc(OC)c1OC` [Podophyllotoxin, reference compound], in series [1], the IC50 was found to be 11 ± 5 nM.

With `O=C(Cn1ccnc1[N+](=O)[O-])NCc1ccccc1` [benznidazole, Benznidazole, reference compound], the IC50 in series [2] (Trypanosoma cruzi, TULAHUEN, L6, in vitro) was 2310 ± 1150 nM; in series [2] (in vitro), 3360 nM.

On to `CCN(CC)CCCC(C)Nc1ccnc2cc(Cl)ccc12` (stereo not drawn) [chloroquine, Chloroquine diphosphate, reference compound], for which the IC50 in series [3] turned out to be 6 nM.

As to `CC(=CC1C=C(C)C2CCC(C)C2C12OC(=O)C(C)=C2O)CCCC1=CC(=O)OC1O` (stereo not drawn) [compound 8, Ircinianin lactone C], the “Stability of isolated compound” value in series [4] (rapid decomposition after the NMR measurements) was “unstable”.

With `Nc1nc(N)nc(Nc2ccc([As]3SCC(CO)S3)cc2)n1` (stereo not drawn) [melarsoprol, Melarsoprol, reference compound], the IC50 in series [5] (Trypanosoma brucei, RHODESIENSE|STIB900, read-out: IC50 T. brucei rhodesiense, in vitro, STIB900 bloodstream forms) is 13 ± 6 nM; in series [5] (read-out: IC50 T. brucei rhodesiense, in vitro, STIB900 bloodstream forms), 20 nM.

For the molecule `CCCCCCCCCCCCCCCCOP(=O)([O-])OCC[N+](C)(C)C` [miltefosine, Miltefosine], the values for the IC50 in series [6] (Leishmania donovani) and in series [6] were 650 ± 270 nM and 486 nM, respectively.

Take Ircinianin lactone A [compound 6]: the “Stability of isolated compound” value in series [4] is on record as “unstable”.

In the case of Ircinianin lactone B [compound 7], the “Stability of isolated compound” value in series [4] is recorded as “unstable”.

Take Oxoircinianin [compound 3]: the “Stability of isolated compound” value in series [4] is on record as “unstable”.

Broadly, the IC50 is the point on the concentration scale where inhibition reaches its midpoint.
